{"source": "patent US6818407B2", "about": "“Anti-endotoxic antimicrobial cationic peptides and methods of use therfor” (priority 1998, dated 2004)", "key": {"P. aeruginosa (H103)": {"tested_on": "P. aeruginosa (H103)", "test": "Synergy study (checkerboard titration) with hen white lysozyme", "type": "cell-based"}, "Salmonella typhi": {"tested_on": "Salmonella typhi", "test": "Synergy study (checkerboard titration) with hen white lysozyme", "type": "cell-based"}, "E. coli [1]": {"tested_on": "E. coli", "test": "Synergy study (checkerboard titration) with hen white lysozyme", "type": "cell-based"}, "S. aureus K147": {"tested_on": "S. aureus K147", "test": "MIC, broth microdilution assay in polypropylene microtiter trays", "type": "cell-based", "details": "average of three separate experiments", "outline": "(§1)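 MIC values record the lowest peptide concentration at which turbidity (OD) remained unchanged throughout the assigned period.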"}, "E. coli [2]": {"tested_on": "E. coli", "test": "MIC, broth microdilution assay in polypropylene microtiter trays", "type": "cell-based", "details": "average of three separate experiments", "outline": "as §1"}, "S. epidermis": {"tested_on": "S. epidermis", "test": "MIC, broth microdilution assay in polypropylene microtiter trays", "type": "cell-based", "details": "average of three separate experiments", "outline": "as §1"}, "S. aureus": {"tested_on": "S. aureus", "test": "MIC, broth microdilution assay in polypropylene microtiter trays", "type": "cell-based", "details": "average of three separate experiments", "outline": "as §1"}, "P. aeruginosa": {"tested_on": "P. aeruginosa", "test": "MIC, broth microdilution assay in polypropylene microtiter trays", "type": "cell-based", "details": "average of three separate experiments", "outline": "as §1"}, "[3]": {"test": "Lethal endotoxemia in galactosamine-sensitized mice", "type": "in vivo, CD-1 mice", "details": "peptide 200 μg intraperitoneal within 10 min of 10 μg LPS; 24 hours post injection; 5 mice per group; no peptide 100", "experimental": "To confirm this in vivo, endotoxic shock was induced by intraperitoneal injection of 10 μg of E.coli 0111:B4 LPS in phosphate-buffered saline (PBS; pH 7.2) into galactosamine-sensitized 8- to 10- week old female CD-1 mice (5 per group). In experiments involving peptides, 200 μg in 100 μl of sterile water was injected at separate intraperitoneal sites within 10 min of LPS injection. Survival was monitored at 24 hours post injection."}, "[4]": {"tested_on": "Pseudomonas aeruginosa strain M2", "test": "Protection of neutropenic CD-1 mice challenged with Pseudomonas aeruginosa", "type": "in vivo", "parameters": "Survival post bacterial challenge, surviving mice: reference not given here", "details": "for Survival (%) post bacterial challenge: PBS 8", "outline": "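Neutropenia induced by three i.p. cyclophosphamide doses ([…], alternate days); mice then infected i.p. with 200-300 organisms/mouse. Peptides (200 µg/mouse = 8 mg/kg) in buffered citrate given i.p. at 30 min (single) or 30 min and 16 hrs (double) post-challenge; PBS control; mean of 2 experiments.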"}, "[5]": {"tested_on": "mutant (Nal B, H744) of P. aeruginosa", "test": "microbe, parasite or virus in culture", "type": "cell-based", "outline": "(§2)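 Checkerboard titration in Mueller Hinton broth, peptide against carbenicillin or ciprofloxacin, inoculum 10 μl of 10^−4 dilution of overnight culture, 18-24 h at 37 °C. Combination MIC is the lowest concentration reducing growth >50%. FIC index = A/MIC A + B/MIC B, with ≤~0.5 synergy, 1.0 additivity, >1.0 antagonism.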"}, "[6]": {"tested_on": "β-lactamase derepressed mutant (H547) of P. aeruginosa", "test": "microbe, parasite or virus in culture", "type": "cell-based", "details": "P. aeruginosa H547", "outline": "as §2"}, "[7]": {"details": "cationic peptide concentration, combined with lysozyme"}, "[8]": {"details": "lysozyme concentration, combined with the peptide"}}}
{"molecule": "CC[C@H](C)[C@H](NC(=O)CNC(=O)[C@@H](NC(=O)[C@H](CCCCN)NC(=O)[C@H](CCCCN)NC(=O)[C@H](Cc1ccccc1)NC(=O)[C@H](CC(C)C)NC(=O)[C@H](CCCCN)NC(=O)[C@H](Cc1c[nH]c2ccccc12)NC(=O)[C@H](CC(C)C)NC(=O)[C@@H](N)CCCCN)[C@@H](C)CC)C(=O)NCC(=O)N[C@@H](C)C(=O)N[C@H](C(=O)N[C@@H](CC(C)C)C(=O)N[C@@H](CCCCN)C(=O)N[C@H](C(=O)N[C@@H](CC(C)C)C(=O)N[C@@H](CCCCN)C(=O)N[C@H](C(=O)N[C@@H](CC(C)C)C(=O)N[C@H](C(=O)N[C@H](C(=O)NCC(=O)N[C@@H](CC(C)C)C(=O)N1CCC[C@H]1C(=O)N[C@@H](C)C(=O)N[C@@H](CC(C)C)C(=O)N[C@@H](CCCCN)C(=O)N[C@@H](CC(C)C)C(=O)N[C@H](C(=O)N[C@@H](CC(C)C)C(=O)N[C@@H](CCCCN)C(=O)O)[C@@H](C)O)[C@@H](C)O)[C@@H](C)O)C(C)C)C(C)C)C(C)C", "note": "[CM7]", "values": [{"measurement": "FIC for combination of cationic peptide and lysozyme", "setting": "P. aeruginosa (H103)", "result": 0.75}, {"measurement": "Lowest [CP] showing synergy", "setting": "P. aeruginosa (H103); [7]", "result": 2.6, "unit": "µg/mL"}, {"measurement": "Lowest [Lyso] showing synergy", "setting": "P. aeruginosa (H103); [8]", "result": 250, "unit": "µg/mL"}, {"measurement": "FIC for combination of cationic peptide and lysozyme", "setting": "Salmonella typhi", "result": 0.52}, {"measurement": "Lowest [CP] showing synergy", "setting": "Salmonella typhi; [7]", "result": 2.61, "unit": "µg/mL"}, {"measurement": "Lowest [Lyso] showing synergy", "setting": "Salmonella typhi; [8]", "result": 15.6, "unit": "µg/mL"}, {"measurement": "FIC for combination of cationic peptide and lysozyme", "setting": "E. coli [1]", "result": 0.31}, {"measurement": "Lowest [CP] showing synergy", "setting": "E. coli [1]; [7]", "result": 0.65, "unit": "µg/mL"}, {"measurement": "Lowest [Lyso] showing synergy", "setting": "E. coli [1]; [8]", "result": 7.8, "unit": "µg/mL"}, {"measurement": "MIC S. aureus K147", "setting": "S. aureus K147", "result": "4 to 8", "unit": "µg/mL"}, {"measurement": "MIC E. coli", "setting": "E. coli [2]", "result": 2, "unit": "µg/mL"}, {"measurement": "MIC S. epidermis", "setting": "S. epidermis", "result": 4, "unit": "µg/mL"}, {"measurement": "MIC S. aureus", "setting": "S. aureus", "result": 8, "unit": "µg/mL"}, {"measurement": "MIC P. aeruginosa", "setting": "P. aeruginosa", "result": 8, "unit": "µg/mL"}, {"measurement": "Mortality (%)", "setting": "[3]", "result": 100, "unit": "%"}, {"measurement": "Survival post bacterial challenge, surviving mice", "setting": "[4]; double dose (200 μg per mouse i.p. at 30 min and 16 hrs), 16 hr", "result": 12}, {"measurement": "Survival post bacterial challenge, surviving mice", "setting": "[4]; double dose, 24 hr", "result": 12}, {"measurement": "Survival post bacterial challenge, surviving mice", "setting": "[4]; double dose, 41 hr", "result": 8}, {"measurement": "Survival post bacterial challenge, surviving mice", "setting": "[4]; double dose, 48 hr", "result": 6}, {"measurement": "Survival post bacterial challenge, surviving mice", "setting": "[4]; double dose, 64 hr", "result": 5}, {"measurement": "Survival (%) post bacterial challenge", "setting": "[4]; double dose, 64 hr", "result": 41, "unit": "%"}, {"measurement": "Survival post bacterial challenge, surviving mice", "setting": "[4]; double dose, 72 hr", "result": 5}, {"measurement": "Survival (%) post bacterial challenge", "setting": "[4]; double dose, 72 hr", "result": 41, "unit": "%"}, {"measurement": "Survival post bacterial challenge, surviving mice", "setting": "[4]; double dose, 96 hr", "result": 5}, {"measurement": "Survival (%) post bacterial challenge", "setting": "[4]; double dose, 96 hr", "result": 41, "unit": "%"}, {"measurement": "Survival post bacterial challenge, surviving mice", "setting": "[4]; single dose (200 μg per mouse i.p. at 30 min), 16 hr", "result": 15}, {"measurement": "Survival post bacterial challenge, surviving mice", "setting": "[4]; single dose, 24 hr", "result": 15}, {"measurement": "Survival post bacterial challenge, surviving mice", "setting": "[4]; single dose, 41 hr", "result": 13}, {"measurement": "Survival post bacterial challenge, surviving mice", "setting": "[4]; single dose, 48 hr", "result": 13}, {"measurement": "Survival post bacterial challenge, surviving mice", "setting": "[4]; single dose, 64 hr", "result": 12}, {"measurement": "Survival (%) post bacterial challenge", "setting": "[4]; single dose, 64 hr", "result": 80, "unit": "%"}, {"measurement": "Survival post bacterial challenge, surviving mice", "setting": "[4]; single dose, 72 hr", "result": 11}, {"measurement": "Survival (%) post bacterial challenge", "setting": "[4]; single dose, 72 hr", "result": 73, "unit": "%"}, {"measurement": "Survival post bacterial challenge, surviving mice", "setting": "[4]; single dose, 96 hr", "result": 11}, {"measurement": "Survival (%) post bacterial challenge", "setting": "[4]; single dose, 96 hr", "result": 73, "unit": "%"}, {"measurement": "(B) MIC of Cipro when combined with peptide", "setting": "[5]; ciprofloxacin with peptide at concentration (A), Nal B, H744", "result": ".125 µg/mL"}, {"measurement": "FIC index", "setting": "[5]; peptide + ciprofloxacin, Nal B, H744", "result": ".63"}, {"measurement": "MIC A MIC of Peptides", "setting": "[5]; peptide alone, P. aeruginosa mutant Nal B, H744 (Table 5)", "result": 16, "unit": "µg/mL"}, {"measurement": "(A) Peptide doses together with Cipro", "setting": "[5]; peptide concentration in combination with ciprofloxacin, Nal B, H744", "result": 2, "unit": "µg/mL"}, {"measurement": "(B) MIC of Carb when combined with peptide", "setting": "[6]; Carbenicillin with peptide at concentration (A)", "result": 64, "unit": "µg/mL"}, {"measurement": "MIC A MIC of Peptides", "setting": "[6]; peptide alone", "result": 32, "unit": "µg/mL"}, {"measurement": "(A) Peptide doses together with Carb", "setting": "[6]; peptide concentration in combination with Carbenicillin", "result": 2, "unit": "µg/mL"}]}
